Data set [1] has as its system MRSA. The experiment in a line: Zones of inhibition on cation adjusted Mueller Hinton agar (Example 2). Conditions: 50 μL drop on MRSA lawn, 37° C., 24 hours. Type of data set: cell-based, methicillin-resistant Staphylococcus aureus. The method, then:
(§1) A compound was screened for its ability to create zones of inhibition on cation adjusted Mueller Hinton agar. It is believed that the compound of Example 2 may be represented by the structure disclosed in FIG. 4H. To perform this test, lawns of methicillin-resistant Staphylococcus aureus (MRSA) or Pseudomonas aeruginosa ATCC 27853 were made on cation adjusted Mueller Hinton agar using standard microbiological techniques. Immediately after plating bacteria on agar, a 50 μL drop of the compound was placed onto the agar surface. The compound was tested in duplicate at 100 μg/mL, 50 μg/mL, 25 μg/mL and 10 μg/mL. All plates were incubated at 37° C. for 24 hours.

Data set [2] deals with Pseudomonas aeruginosa ATCC 27853. Described as above. The class given is cell-based. Conditions: 50 μL drop on P. aeruginosa lawn, 37° C., 24 hours. As to the method:
as §1

The subject of data set [3] is MRSA. Kind of data set: MIC, CLSI M26-A microdilution (Example 2). Conditions: Staphylococcus aureus, 10^5 to 10^2 cells/mL in 24 hours. Type of data set: cell-based, methicillin-resistant Staphylococcus aureus. As to the method:
(§2) The second test determined the minimum inhibitory concentration (MIC) of the compound against MRSA and P. aeruginosa ATCC 27853. […] This definition was consistent with the Clinical and Laboratory Standards Institute (CLSI). More specifically, the microdilution method as outlined in the M26-A CLSI guideline was used. All tests were performed with cation adjusted Mueller Hinton broth.
Background: Broth dilution looks for growth in wells or tubes with falling amounts of substance.

The next data set relates to P. aeruginosa ATCC 27853. Kind of data set: MIC, CLSI M26-A microdilution (Example 2). The note with it: Pseudomonas aeruginosa, ATCC27853, 10^5 to 10^2 cells/mL in 24 hours. Type of data set: cell-based. The method, then:
as §2

The subject of data set [4] is MRSA biofilm. The experiment in a line: MBEC assay (Calgary Biofilm Device), 100% eradication (Example 2). Type of data set: cell-based, methicillin-resistant Staphylococcus aureus. Conditions: eradicate 100% of detectable biofilm, listed as PBC-51. The method, then:
(§3) In addition to determining the MIC, the minimum biofilm eradication concentration (MBEC) of PBC-51 was also determined. The MBEC was determined using the MBEC assay, formerly known as the Calgary Biofilm Device, developed by Innovotech. In this instance, the MBEC was defined as the amount of antimicrobial required to eradicate 100% of detectable biofilm after being grown in the MBEC device. To grow the biofilms within this device, 150 μL of solution containing a concentration of 10^5 cells/mL were inoculated into each well of a 96-well plate. A lid containing 96 pegs was placed onto the plate and incubated for 24 hours at 37° C. while being shaken at 110 rpm. Biofilms developed on the surface of the polystyrene pegs within the 96-well plate. After 24 hours, each peg contained between 10^5 and 10^6 cells in well-established biofilms. The lid with pegs was transferred to a 96-well plate that contained 200 μL of varying concentrations of the compound and was incubated at 37° C. for an additional 24 hours. The plate was then sonicated, and the biofilms quantified using a 10-fold dilution series to determine the MBEC.

Data set [5] has as its system P. aeruginosa ATCC 27853 biofilm. Described as above. Conditions: eradicate 100% of detectable biofilm, listed as PBC-51. The class given is cell-based, Pseudomonas aeruginosa. The method, then: as §3
The test system of data set [6] is MRSA biofilm. The experiment in a line: EBEC on PEEK membranes, 100% eradication (Example 2). The class given is cell-based, methicillin-resistant Staphylococcus aureus. The note with it: PEEK membrane, eradicate all detectable amounts (100%), listed as PBC-51. The method, then:
(§4) The fourth test that was performed was the effective biofilm eradication concentration (EBEC). To determine the EBEC, biofilms of MRSA and P. aeruginosa ATCC 27853 were grown on the surface of PEEK membranes using a previously established protocol. Briefly, 500 mL of brain heart infusion (BHI) broth were inoculated with 10^5 cells/mL of MRSA or P. aeruginosa. BHI broth was placed into a membrane biofilm reactor and placed on a hot plate set at 34° C. for 24 hours with a stir bar rotating at 130 rpm. Following the initial 24-hour growth period, a 10% BHI broth solution was flowed through the reactor at a rate of 6.944 mL/min for another 24 hours. After 48 hours of growth, each PEEK membrane had biofilm growth on it. In this experiment, there were ˜2×10^11 cells of MRSA per PEEK membrane and −2×10^10 cells of P. aeruginosa per PEEK membrane. The EBEC was defined as the concentration of the compound that was required to eradicate all detectable amounts (100%) of bacteria within the biofilms.

Data set [7] concerns P. aeruginosa ATCC 27853 biofilm. Described as above. Type of data set: cell-based, Pseudomonas aeruginosa. The note with it: PEEK membrane, eradicate all detectable amounts (100%), listed as PBC-51. The method, then:
as §4

The next data set has as its system Columbia blood agar. Kind of data set: Hemolytic nature on Columbia blood agar. The class given is cell-based. The note with it: 100 μg/mL, 50 μg/mL and 25 μg/mL; 20 μL on Columbia blood agar, 37° C., 24 hours. The method, then: In addition to determining the antimicrobial efficacy of the compound, an initial test was performed to determine its hemolytic nature. To do so, the compound was suspended in concentrations of 100 μg/mL, 50 μg/mL and 25 μg/mL. Twenty μL of each concentration was placed onto the surface of Columbia blood agar and incubated at 37° C. for 24 hours.

Data set [8] relates to biofilms of MRSA and P. aeruginosa. The experiment in a line: Visual observation of biofilm dispersal from PEEK membranes. Type of data set: cell-based. Conditions: 300, 200 and 100 μg/mL. As to the method:
Initial tests based on visual observation were performed to determine the ability of the compound to disperse biofilms. This was done by observing the biofilms of MRSA and P. aeruginosa that had grown on the surface of PEEK membranes after they had been placed in three separate concentrations of the compound (300 μg/mL, 200 μg/mL and 100 μg/mL). Biofilms were observed every 30 minutes to see if they separated from the PEEK membrane.

The text below walks through data of patent US20150274639A1, “METHODS OF USE FOR COMPOSITIONS COMPRISING A BIOCIDAL POLYAMINE” (Curza Global, LLC, priority 2013, published 2015).

“And” between values parts separate entries of the source, which are not always exact repeats. Identical values can stand only once.

Consider `CC(C)(C)OC(=O)NCCCNCCCNCc1cc(CNCCCNCCCN)cc(CNCCCNCCCN)c1` [CZ-51], for which the entries for the “concentration at which total clearing was seen” value (in the data set with MRSA [1]; in [2]) were 10 µg/mL and 50 µg/mL, respectively. In addition, in [2], the “concentration at which partial clearing was seen” value was determined as 25 µg/mL. Further, the MIC (usually the lowest concentration found to suppress growth) against MRSA [3] was ~1 µg/mL and ~1.88 µM; in the data set on P. aeruginosa ATCC 27853 it was ~6 µg/mL and ~11.3 µM. In addition, the MBEC in the data set with MRSA biofilm [4] is < 25 μg/mL and < 47 μM; in data set [5], ~35 μg/mL and ~65.92 μM. The EBEC was ~250 μg/mL and ~470.88 μM with MRSA biofilm [6]; < 100 μg/mL and < 188.33 μM in [7]. Also, the hemolytic activity entry in the data set on Columbia blood agar is “none of these concentrations displayed hemolytic activity”. For the same compound, in [8], the “biofilm separated from the PEEK membrane by 24 hours” value is reported as “all detectable amounts of biofilm had separated”. The “biofilms separated from the PEEK membrane by 4 hours” value in [8] is reported as “approximately half”. For the same compound, in data set [8], the “time at which biofilms began to separate from the PEEK membranes” value is no more than 2 h.
